Measurements: patent US9504691B2, “Finafloxacin suspension compositions” (ALCON RESEARCH, LTD., priority 2012, dated 2016)
≈ marks a conversion by molar mass, not a printed value.

Assays:
[1] = tested on: Ciprofloxacin-Resistant P. aeruginosa; test: In vitro antimicrobial susceptibility (MIC), Ciprofloxacin-Resistant P. aeruginosa; format: cell-based; conditions: 11 isolates; for MIC Range: in µg/mL (unit assumed)
Method: (§1) A finafloxacin solution composition at pH 5.8 and 7.3 was compared to ciprofloxacin and ofloxacin compositions using standard in vitro antimicrobial susceptibility tests (M07-08 Methods for Dilution Antimicrobial Susceptibility Tests for Bacteria that Grow Aerobically; Approved Standard-Eighth Edition (January 2009, Clinical and Laboratory Standards Institute), herein incorporated by reference). Minimum inhibitory concentrations (MIC50) were determined using organisms commonly found in otic and ophthalmic infections. The MIC50 was the lowest concentration of antibiotic that prevented growth of the test organism, as determined visually by a lack of turbidity.
(§2) The results of the experiment are presented below in TABLES 1-5. At acidic pH, finafloxacin generally had greater activity against both Gram-positive and Gram-negative organisms than the fluoroquinolones ciprofloxacin and ofloxacin, both of which are used for the treatment of otic infections. Higher activity under acidic conditions is important for an otic formulation since a low pH formulation is preferred to slow bacterial and fungal growth, as well as the fact the pH environment of the external ear canal is ˜pH 6.

[2] = tested on: Ciprofloxacin-Susceptible P. aeruginosa; test: In vitro antimicrobial susceptibility (MIC), Ciprofloxacin-Susceptible P. aeruginosa; format: cell-based; conditions: 14 isolates; for MIC Range: in µg/mL (unit assumed)
Method: as §1, §2

[3] = tested on: E. coli; test: In vitro antimicrobial susceptibility (MIC), E. coli; format: cell-based; conditions: 10 isolates
Method: as §1, §2

[4] = tested on: Ciprofloxacin-Susceptible S. aureus; test: In vitro antimicrobial susceptibility (MIC), Ciprofloxacin-Susceptible S. aureus; format: cell-based; conditions: 8 isolates; for MIC Range: in µg/mL (unit assumed)
Method: as §1, §2

[5] = tested on: Ciprofloxacin-Resistant S. aureus; test: In vitro antimicrobial susceptibility (MIC), Ciprofloxacin-Resistant S. aureus; format: cell-based; conditions: 12 isolates; for MIC50 / MIC90: unit assumed; for MIC Range: in µg/mL (unit assumed)
Method: as §1, §2

[6] = Stability studies of finafloxacin formulations; format: physicochemical; conditions: aqueous solutions at pH between 5 and 6
Method: Exploratory stability studies were conducted to physical and chemical stability characteristics of formulations of the present invention.

[7] = Stability of finafloxacin free base polymorphs at high temperatures; format: physicochemical; conditions: temperatures such as those encountered during heat sterilization; compared with forms B and C
From the text: A preferred form of finafloxacin for use in embodiments of the present invention is finafloxacin free base. At least three polymorphs of the finafloxacin free base have been identified (forms A, B, and C). […] The crystalline form of finafloxacin free base form A has an X-ray diffraction spectrum substantially the same as the X-ray powder diffraction spectrum shown in FIG. 1.

[8] = pH 5.8, in µg/mL (unit assumed)
[9] = pH 7.3, in µg/mL (unit assumed)

MIC50 ([1]; pH 5.8) [µg/mL]	MIC90 ([1]; pH 5.8) [µg/mL]	MIC50 ([1]; pH 7.3) [µg/mL]	MIC90 ([1]; pH 7.3) [µg/mL]	MIC50 ([2]; pH 5.8) [µg/mL]	MIC90 ([2]; pH 5.8) [µg/mL]	MIC Range ([2]; pH 5.8)	MIC50 ([2]; pH 7.3) [µg/mL]	MIC90 ([2]; pH 7.3) [µg/mL]	MIC Range ([2]; pH 7.3)	MIC50 ([3]; pH 5.8) [µg/mL]	MIC90 [3, 8]	MIC50 ([3]; pH 7.3) [µg/mL]	MIC90 [3, 9]	MIC50 ([4]; pH 5.8) [µg/mL]	MIC50 ([4]; pH 7.3) [µg/mL]	MIC Range ([4]; pH 7.3)	MIC50 ([5]; pH 5.8) [µg/mL]	MIC90 ([5]; pH 5.8) [µg/mL]	MIC Range ([5]; pH 7.3)	Compound	also measured
64 (≈ 193 µM)	> 512	16 (≈ 48.3 µM)	512 (≈ 1550 µM)	1 (≈ 3.02 µM)	8 (≈ 24.1 µM)	0.125-8	0.5 (≈ 1.51 µM)	2 (≈ 6.04 µM)	0.063-2	256 (≈ 773 µM)	>1024	16 (≈ 48.3 µM)	128	1 (≈ 3.02 µM)	0.25 (≈ 0.754 µM)	0.125-1	128 (≈ 386 µM)	> 256	4-128	O=C(O)c1cn(C2CC2)c2cc(N3CCNCC3)c(F)cc2c1=O [Ciprofloxacin, ciprofloxacin]	MIC Range ([1]; pH 7.3): 4-512; MIC Range ([3]; pH 7.3): ≦0.008-128; MIC50 ([5]; pH 7.3): 128 µg/mL (≈ 386 µM); MIC90 ([5]; pH 7.3): 128 µg/mL (≈ 386 µM)
16 (≈ 40.2 µM)	512 (≈ 1290 µM)	512 (≈ 1290 µM)	> 512	1 (≈ 2.51 µM)	4 (≈ 10 µM)	0.25-4	4 (≈ 10 µM)	16 (≈ 40.2 µM)	2-16	4 (≈ 10 µM)	8	32 (≈ 80.3 µM)	64	0.016 (≈ 0.0402 µM)	0.125 (≈ 0.314 µM)	0.016-0.25	4 (≈ 10 µM)	8 (≈ 20.1 µM)	2-16	N#Cc1c(N2C[C@@H]3NCCO[C@H]3C2)c(F)cc2c(=O)c(C(=O)O)cn(C3CC3)c12 [Fina., 8-cyano-1-cyclopropyl-6-fluoro-7-[(4aS,7aS)-hexahydropyrrolo[3,4-b]-1,4-oxazin-6(2H)-yl]-1,4-dihydro-4-oxo-3-quinolinecarboxylic acid]	MIC Range ([1]; pH 5.8): 2-512; precipitate formation in stability studies [6]: precipitates form; MIC Range [3, 8]: 0.0078-8; MIC Range [3, 9]: 0.008-64; MIC Range ([4]; pH 5.8): 0.008-0.125; MIC Range ([5]; pH 5.8): 0.5-8; MIC50 ([5]; pH 7.3): 16 µg/mL (≈ 40.2 µM); MIC90 ([5]; pH 7.3): 16 µg/mL (≈ 40.2 µM)
																				N#Cc1c(N2C[C@@H]3NCCO[C@H]3C2)c(F)cc2c(=O)c(C(=O)O)cn(C3CC3)c12 [finafloxacin free base form A]	stability of polymorph at high temperatures [7]: most stable at high temperatures

Compound	MIC50 ([1]; pH 5.8) [µg/mL]	MIC90 ([1]; pH 5.8) [µg/mL]	MIC50 ([1]; pH 7.3) [µg/mL]	MIC90 ([1]; pH 7.3) [µg/mL]	MIC50 ([2]; pH 5.8) [µg/mL]	MIC90 ([2]; pH 5.8) [µg/mL]	MIC Range ([2]; pH 5.8)	MIC50 ([2]; pH 7.3) [µg/mL]	MIC90 ([2]; pH 7.3) [µg/mL]	MIC Range ([2]; pH 7.3)	MIC50 ([3]; pH 5.8) [µg/mL]	MIC90 [3, 8]	MIC50 ([3]; pH 7.3) [µg/mL]	MIC90 [3, 9]	MIC50 ([4]; pH 5.8) [µg/mL]	MIC50 ([4]; pH 7.3) [µg/mL]	MIC Range ([4]; pH 7.3)	MIC50 ([5]; pH 5.8) [µg/mL]	MIC90 ([5]; pH 5.8) [µg/mL]	MIC Range ([5]; pH 7.3)	also measured
CC1COc2c(N3CCN(C)CC3)c(F)cc3c(=O)c(C(=O)O)cn1c23 (stereo not drawn) [Ofloxacin, ofloxacin]	256 (≈ 708 µM)	> 512	64 (≈ 177 µM)	> 512	4 (≈ 11.1 µM)	32 (≈ 88.6 µM)	1-32	2 (≈ 5.53 µM)	4 (≈ 11.1 µM)	1-4	512 (≈ 1420 µM)	512	16 (≈ 44.3 µM)	16	1 (≈ 2.77 µM)	0.25 (≈ 0.692 µM)	0.125-0.5	64 (≈ 177 µM)	> 512	2-256	MIC Range [3, 8]: 0.25-512; MIC Range [3, 9]: 0.016-16; MIC Range ([4]; pH 5.8): 0.5-64; MIC50 ([5]; pH 7.3): 32 µg/mL (≈ 88.6 µM); MIC90 ([5]; pH 7.3): 256 µg/mL (≈ 708 µM)
